Paper PMC4770307, “New Synthetic Routes to Triazolo-benzodiazepine Analogues: Expanding the Scope of the Bump-and-Hole Approach for Selective Bromo and Extra-Terminal (BET) Bromodomain Inhibition” (Journal of Medicinal Chemistry, 2015)

Legend:
Brd2(2)L383A [1] = target: T1, Brd2(2)L383A (Homo sapiens, UniProt P25440, L383A); experiment: Differential scanning fluorimetry (DSF) thermal shift; format: binding; conditions: compound 10 μM (LightCycler480) or 30 μM (Mx3005P), read-out: Thermal stabilization (ΔTm)
T1 construct: first bromodomain (e.g., Brd2(1)) versus second bromodomain (e.g., Brd2(2)); His6 (TEV-cleavable) (N); made in house; host or cells: E. coli BL21(DE3)
T1 sequence (P25440 344-453 L383A limits assumed): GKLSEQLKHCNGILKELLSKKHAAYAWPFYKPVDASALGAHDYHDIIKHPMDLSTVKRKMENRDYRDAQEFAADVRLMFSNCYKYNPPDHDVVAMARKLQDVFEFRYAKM

Brd2(1)L110A [2] = target: T2, Brd2(1)L110A (Homo sapiens, UniProt P25440, L110A); experiment: Isothermal titration calorimetry (ITC); format: binding; conditions: ITC at 25 °C
T2 construct: first bromodomain (e.g., Brd2(1)) versus second bromodomain (e.g., Brd2(2)); His6 (TEV-cleavable) (N); made in house; host or cells: E. coli BL21(DE3)
T2 sequence (P25440 74-180 L110A limits assumed): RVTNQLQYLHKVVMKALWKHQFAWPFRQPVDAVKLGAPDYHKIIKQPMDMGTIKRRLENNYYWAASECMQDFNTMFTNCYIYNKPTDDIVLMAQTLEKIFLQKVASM

Brd2(1)L110A [3] = target: T2, Brd2(1)L110A; experiment: Differential scanning fluorimetry (DSF) thermal shift; format: binding; conditions: compound 10 μM (LightCycler480) or 30 μM (Mx3005P), read-out: Thermal stabilization (ΔTm)
Brd2(1)L110I [4] = target: T3, Brd2(1)L110I (Homo sapiens, UniProt P25440, L110I); experiment: as above; format: binding; conditions: compound 10 μM (LightCycler480) or 30 μM (Mx3005P), read-out: Thermal stabilization (ΔTm)
T3 construct: first bromodomain (e.g., Brd2(1)) versus second bromodomain (e.g., Brd2(2)); His6 (TEV-cleavable) (N); made in house; host or cells: E. coli BL21(DE3)
T3 sequence (P25440 74-180 L110I limits assumed): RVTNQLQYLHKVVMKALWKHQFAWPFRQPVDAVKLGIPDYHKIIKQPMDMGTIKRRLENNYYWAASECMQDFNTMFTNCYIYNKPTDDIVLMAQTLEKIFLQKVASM

Brd2(2)L383I [5] = target: T4, Brd2(2)L383I (Homo sapiens, UniProt P25440, L383I); experiment: Isothermal titration calorimetry (ITC); format: binding; conditions: ITC at 25 °C
T4 construct: first bromodomain (e.g., Brd2(1)) versus second bromodomain (e.g., Brd2(2)); His6 (TEV-cleavable) (N); made in house; host or cells: E. coli BL21(DE3)
T4 sequence (P25440 344-453 L383I limits assumed): as the sequence (P25440 344-453 L383A limits assumed) above, with A40I counted along it

Brd2(2) [6] = target: T5, Brd2(2) (Homo sapiens, UniProt P25440); experiment: Differential scanning fluorimetry (DSF) thermal shift; format: binding; conditions: compound 10 μM (LightCycler480) or 30 μM (Mx3005P), read-out: Thermal stabilization (ΔTm)
T5 construct: first bromodomain (e.g., Brd2(1)) versus second bromodomain (e.g., Brd2(2)); His6 (TEV-cleavable) (N); made in house; host or cells: E. coli BL21(DE3); plasmid a gift of the SGC Oxford
T5 sequence (P25440 344-453 limits assumed): as the sequence (P25440 344-453 L383A limits assumed) above, with A40L counted along it

Brd2(1)L110I [7] = target: T3, Brd2(1)L110I; experiment: Isothermal titration calorimetry (ITC); format: binding; conditions: ITC at 25 °C
Brd2(2) [8] = target: T5, Brd2(2); experiment: Isothermal titration calorimetry (ITC); format: binding
Brd2(2)L383A [9] = target: T1, Brd2(2)L383A; experiment: Isothermal titration calorimetry (ITC); format: binding; conditions: ITC at 25 °C
Brd2(2)L383I [10] = target: T4, Brd2(2)L383I; experiment: Differential scanning fluorimetry (DSF) thermal shift; format: binding; conditions: compound 10 μM (LightCycler480) or 30 μM (Mx3005P), read-out: Thermal stabilization (ΔTm)
Brd2(1) [11] = target: T6, Brd2(1) (Homo sapiens, UniProt P25440); experiment: Isothermal titration calorimetry (ITC); format: binding
T6 construct: first bromodomain (e.g., Brd2(1)) versus second bromodomain (e.g., Brd2(2)); His6 (TEV-cleavable) (N); made in house; host or cells: E. coli BL21(DE3); plasmid a gift of the SGC Oxford
T6 sequence (P25440 74-180 limits assumed): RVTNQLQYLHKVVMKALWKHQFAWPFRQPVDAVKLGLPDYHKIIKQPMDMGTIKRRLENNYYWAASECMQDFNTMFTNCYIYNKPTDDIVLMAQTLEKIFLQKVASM

Brd2(1) [12] = target: T6, Brd2(1); experiment: Differential scanning fluorimetry (DSF) thermal shift; format: binding; conditions: compound 10 μM (LightCycler480) or 30 μM (Mx3005P), read-out: Thermal stabilization (ΔTm)
Brd2(2)W370F = target: T7, Brd2(2)W370F (Homo sapiens, UniProt P25440, W370F); experiment: as above; format: binding; conditions: compound 10 μM (LightCycler480) or 30 μM (Mx3005P), read-out: Thermal stabilization (ΔTm)
T7 construct: first bromodomain (e.g., Brd2(1)) versus second bromodomain (e.g., Brd2(2)); His6 (TEV-cleavable) (N); made in house; host or cells: E. coli BL21(DE3)
T7 sequence (P25440 344-453 W370F limits assumed): as the sequence (P25440 344-453 L383A limits assumed) above, with W27F, A40L counted along it

Brd2(1)W097F = target: T8, Brd2(1)W097F (Homo sapiens, UniProt P25440, W97F); experiment: as above; format: binding; conditions: compound 10 μM (LightCycler480) or 30 μM (Mx3005P), read-out: Thermal stabilization (ΔTm)
T8 construct: first bromodomain (e.g., Brd2(1)) versus second bromodomain (e.g., Brd2(2)); His6 (TEV-cleavable) (N); made in house; host or cells: E. coli BL21(DE3)
T8 sequence (P25440 74-180 W97F limits assumed): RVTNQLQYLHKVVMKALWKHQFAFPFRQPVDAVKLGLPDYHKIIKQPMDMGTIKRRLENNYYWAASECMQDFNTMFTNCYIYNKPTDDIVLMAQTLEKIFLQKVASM

Brd2(1)W097H = target: T9, Brd2(1)W097H (Homo sapiens, UniProt P25440, W97H); experiment: as above; format: binding; conditions: compound 10 μM (LightCycler480) or 30 μM (Mx3005P), read-out: Thermal stabilization (ΔTm)
T9 construct: first bromodomain (e.g., Brd2(1)) versus second bromodomain (e.g., Brd2(2)); His6 (TEV-cleavable) (N); made in house; host or cells: E. coli BL21(DE3)
T9 sequence (P25440 74-180 W97H limits assumed): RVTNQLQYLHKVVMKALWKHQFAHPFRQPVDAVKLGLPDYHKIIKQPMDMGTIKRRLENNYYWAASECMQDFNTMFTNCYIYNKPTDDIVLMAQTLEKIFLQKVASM

Brd2(2)W370H = target: T10, Brd2(2)W370H (Homo sapiens, UniProt P25440, W370H); experiment: as above; format: binding; conditions: compound 10 μM (LightCycler480) or 30 μM (Mx3005P), read-out: Thermal stabilization (ΔTm)
T10 construct: first bromodomain (e.g., Brd2(1)) versus second bromodomain (e.g., Brd2(2)); His6 (TEV-cleavable) (N); made in house; host or cells: E. coli BL21(DE3)
T10 sequence (P25440 344-453 W370H limits assumed): as the sequence (P25440 344-453 L383A limits assumed) above, with W27H, A40L counted along it

Brd2(2) [13] = conditions: reported Kd; cited from earlier work
Brd2(2)V376A = target: T11, Brd2(2)V376A (Homo sapiens, UniProt P25440, V376A); experiment: Differential scanning fluorimetry (DSF) thermal shift; format: binding; conditions: compound 10 μM (LightCycler480) or 30 μM (Mx3005P), read-out: Thermal stabilization (ΔTm)
T11 construct: first bromodomain (e.g., Brd2(1)) versus second bromodomain (e.g., Brd2(2)); His6 (TEV-cleavable) (N); made in house; host or cells: E. coli BL21(DE3)
T11 sequence (P25440 344-453 V376A limits assumed): as the sequence (P25440 344-453 L383A limits assumed) above, with V33A, A40L counted along it

Brd2(1)V103A = target: T12, Brd2(1)V103A (Homo sapiens, UniProt P25440, V103A); experiment: as above; format: binding; conditions: compound 10 μM (LightCycler480) or 30 μM (Mx3005P), read-out: Thermal stabilization (ΔTm)
T12 construct: first bromodomain (e.g., Brd2(1)) versus second bromodomain (e.g., Brd2(2)); His6 (TEV-cleavable) (N); made in house; host or cells: E. coli BL21(DE3)
T12 sequence (P25440 74-180 V103A limits assumed): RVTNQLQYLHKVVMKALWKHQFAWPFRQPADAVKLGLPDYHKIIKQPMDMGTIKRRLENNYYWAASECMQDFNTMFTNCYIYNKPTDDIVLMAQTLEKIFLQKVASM

[14] = tested on: WT and mutant Brd2(1) and Brd2(2) proteins; experiment: DSF, WT and mutant proteins (statements in words); format: binding; conditions: mutant compared with WT Brd2 proteins
Brd4(1) = Brd4(1) (Homo sapiens, UniProt O60885); experiment: Isothermal titration calorimetry (ITC); format: binding; conditions: ITC at 30 °C, […] DMSO
Brd2(2) [15] = experiment: Isothermal titration calorimetry (ITC); format: binding; conditions: Brd2(2) over Brd2(1), from ITC Kd's
Brd4(2) = Brd4(2) (Homo sapiens, UniProt O60885); experiment: Isothermal titration calorimetry (ITC); format: binding; conditions: ITC at 30 °C, […] DMSO
[16] = tested on: leucine/alanine mutant BET bromodomains; set-up: method as in PMID 25323695; conditions: cited from earlier work

Structure (SMILES)	ΔTm at 10 µM (Brd2(2) [6])	ΔTm at 10 µM (Brd2(1) [12])	ΔTm at 10 µM (Brd2(2)W370F)	ΔTm at 10 µM (Brd2(1)W097F)	ΔTm at 10 µM (Brd2(1)W097H)	ΔTm at 10 µM (Brd2(2)W370H)	other results
COC(=O)[C@H](C)[C@@H]1N=C(c2ccc(Cl)cc2)c2cc(OC)ccc2-n2c(C)nnc21 [ME]	5.6 ± 0.1 °C	3.2 ± 0.2 °C	–	–	–	–	ΔTm at 10 µM (Brd2(2)L383A [1]): 9.3 ± 0.2 °C; Kd (Brd2(1)L110A [2]): 17 ± 4 nM; ΔH (binding enthalpy) (Brd2(1)L110A [2]): –16.8 ± 0.2 kcal/mol; ΔTm at 10 µM (Brd2(1)L110A [3]): 7.9 ± 0.2 °C; ΔTm at 10 µM (Brd2(1)L110I [4]): 5.7 ± 0.7 °C; Kd (Brd2(2)L383I [5]): 27 ± 12 nM; ΔH (binding enthalpy) (Brd2(2)L383I [5]): –9.8 ± 0.1 kcal/mol; Kd (Brd2(1)L110I [7]): 260 ± 40 nM; ΔH (binding enthalpy) (Brd2(1)L110I [7]): –8.5 ± 0.1 kcal/mol; Kd (Brd2(2) [8]; ITC at 25 °C): 300 ± 80 nM; ΔH (binding enthalpy) (Brd2(2) [8]; ITC at 25 °C): –5.4 ± 0.1 kcal/mol; Kd (Brd2(2)L383A [9]): 22 ± 4 nM; ΔH (binding enthalpy) (Brd2(2)L383A [9]): –12.6 ± 0.1 kcal/mol; ΔTm at 10 µM (Brd2(2)L383I [10]): 9.6 ± 0.1 °C; Kd (Brd2(1) [11]; ITC at 25 °C): 1470 ± 180 nM; ΔH (binding enthalpy) (Brd2(1) [11]; ITC at 25 °C): –8.6 ± 0.2 kcal/mol
COC(=O)CC1N=C(c2cc(C)ccc2C)c2cc(OC)ccc2-n2c(C)nnc21 (stereo not drawn) [compound 26]	3.5 ± 0.1 °C	1.8 ± 0.2 °C	0.6 ± 0.1 °C	0.1 ± 0.2 °C	-0.4 °C	-0.1 °C	–
CC(=O)NCCCCn1c2c(c3ccccc31)C(=O)NCC2 [olinone]	–	–	–	–	–	–	Kd (Brd2(2) [13]): > 300000 nM
COC(=O)CC1N=C(c2ccc(Cl)cc2)c2cc(OC)cc(C)c2-n2c(C)nnc21 (stereo not drawn) [compound 15]	4 ± 0.1 °C	0.7 ± 0.2 °C	–	–	–	–	ΔTm at 10 µM (Brd2(2)V376A): 1.2 ± 0.1 °C; ΔTm at 10 µM (Brd2(1)V103A): 0.5 ± 0.3 °C
COC(=O)CC1N=C(c2ccc(Cl)cc2C)c2cc(OC)ccc2-n2c(C)nnc21 (stereo not drawn) [compound 24]	6.6 ± 0.2 °C	6.3 ± 0.1 °C	2.8 ± 0.1 °C	1.4 ± 0.2 °C	0.9 ± 0.3 °C	1.1 ± 0.2 °C	–
COC(=O)CC1N=C(c2ccc(Cl)c(C)c2)c2cc(OC)ccc2-n2c(C)nnc21 (stereo not drawn) [compound 25]	3.2 ± 0.1 °C	1.5 ± 0.2 °C	1.5 °C	-0.1 °C	0.2 ± 0.2 °C	1 ± 0.3 °C	–
COC(=O)[C@@H](C)[C@@H]1N=C(c2ccc(Cl)cc2)c2cc(OC)ccc2-n2c(C)nnc21 [compound 16]	0.2 ± 0.2 °C	-0.3 °C	–	–	–	–	ΔTm at 10 µM (Brd2(2)L383A [1]): 0.8 ± 0.6 °C; ΔTm at 10 µM (Brd2(1)L110A [3]): 1.6 ± 0.2 °C; thermal stabilization, in words [14]: did not induce a significant stabilization; ΔTm at 10 µM (Brd2(2)L383I [10]): 0.3 ± 0.2 °C
COC(=O)CC1N=C(c2cccc3[nH]ccc23)c2cc(OC)ccc2-n2c(C)nnc21 (stereo not drawn) [compound 28]	7.7 ± 0.2 °C	6.8 ± 0.6 °C	5.2 ± 0.1 °C	1.9 ± 0.5 °C	0.6 ± 0.3 °C	2.7 ± 0.4 °C	Kd (Brd4(1)): 520 nM; selectivity for the second over the first bromodomain (Brd2(2) [15]): ca. 20 fold; Kd (Brd2(2) [8]; ITC at 30 °C, […] DMSO): 45 nM; Kd (Brd4(2)): 50 nM; Kd (Brd2(1) [11]; ITC at 30 °C, […] DMSO): 780 nM
CC[C@@H](C(=O)OC)[C@@H]1N=C(c2ccc(Cl)cc2)c2cc(OC)ccc2-n2c(C)nnc21 [ET (6)]	–	–	–	–	–	–	selectivity for L/A mutants relative to WT BET bromodomains, average ([16]; average across the entire subfamily): 160 fold; affinity for leucine/alanine mutant BET bromodomains ([16]; in words): low nanomolar affinity
COC(=O)CC1N=C(c2cc(Cl)ccc2Cl)c2cc(OC)ccc2-n2c(C)nnc21 (stereo not drawn) [compound 27]	2.5 ± 0.2 °C	1.2 ± 0.2 °C	0.3 °C	0 °C	-0.4 °C	-0.4 °C	–
